Values of other authors, collected in patent US12006297B2, “Antibacterial activity of functionalized dihydropyrimidines” (WiSys Technology Foundation, Inc., priority 2021, dated 2024).

How the values were obtained:
DHFR = DHFR (Staphylococcus aureus, UniProt P0A017)
MRSA = conditions: versus oxacillin and erythromycin

Chain of DHFR (P0A017 whole entry): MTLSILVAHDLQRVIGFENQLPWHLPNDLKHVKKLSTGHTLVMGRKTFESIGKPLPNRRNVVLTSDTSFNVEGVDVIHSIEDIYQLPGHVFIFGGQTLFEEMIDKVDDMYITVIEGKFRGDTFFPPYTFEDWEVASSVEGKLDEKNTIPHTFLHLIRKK

## COc1cc(Cc2cnc(N)nc2N)c2c(c1OC)OC(C1CC1)C=C2 (racemic) [Iclaprim]
Skin infections; clinical trials
  side effects: mild to moderate side effects
Skin infections; control of skin infections, phase 2 and 3 clinical trials
  efficacy versus vancomycin: non-inferiority

## CCOC(=O)C1=C(CC)NC(N)=NC1c1cc(Cl)cc(Cl)c1O (stereo not shown) [HAK-22, emmacin]
DHFR
  mechanism of DHFR inhibition: unique allosteric uncompetitive mechanism
MRSA
  MRSA growth inhibition compared with approved antibiotics: inhibiting the growth of MRSA at concentrations lower than approved antibiotics
